In US20230241188A1 (priority 2020, published 2023):
Like-named read-outs stand apart in the source and are kept apart here.

Tests used:
[1] = test system: SARS-COV-2 R209112 strain; type: cell-based
[2] = molecular target: SARS-CoV-2 (2019-nCoV) Envelope Recombinant Protein (Severe acute respiratory syndrome coronavirus 2, UniProt P0DTC4); type: biochemical
[3] = test system: SARS-COV-2 R209112 strain; test: SARS-CoV-2 inactivation test, Vero cells, optical microscope observation; type: cell-based
[4] = molecular target: Recombinant SARS-CoV-2 spike protein (Severe acute respiratory syndrome coronavirus 2, UniProt P0DTC2); type: biochemical
[5] = test system: SARS-COV-2 R209112 strain
envelope protein = envelope protein (Severe acute respiratory syndrome coronavirus 2, UniProt P0DTC4); type: biochemical, SARS-CoV-2
Sequence of envelope protein (P0DTC4 whole entry): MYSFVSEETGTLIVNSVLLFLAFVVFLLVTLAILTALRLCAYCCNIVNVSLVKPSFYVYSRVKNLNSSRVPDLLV

[6] = test system: wild-type (WT) SARS-CoV-2 strain (EPI_ISL_578176); type: cell-based

Sequence of SARS-CoV-2 (2019-nCoV) Envelope Recombinant Protein (P0DTC4 whole entry): as above

In the case of CC(=O)N[C@@H](CS)C(=O)O [Acetylcysteine, acetylcysteine], the “effect (cytopathic effect at 7 days), in words” value [1] is reported as “did not show any effect”, the “optical microscope observation of SARS-CoV-2 infection, V1” value [1] is reported as “+” and the “optical microscope observation of SARS-CoV-2 infection, V2” value [1] is reported as “+”. For the same compound, the “optical microscope observation of SARS-CoV-2 infection, V3” value [1] was “-”, the “optical microscope observation of SARS-CoV-2 infection, V4” value [1] was “-” and the “optical microscope observation of SARS-CoV-2 infection, V5” value [1] was “-”. For the same compound, the “TOXICITY (optical microscope observation)” value (shortened to “TOXICITY”) (Vero cells) was “Nil”, the “envelope protein band on SDS-PAGE gel” value [2] was “did not disintegrate the protein” and the “optical microscope observation of SARS-CoV-2 infection, V1” value [3] was “+”. For the same compound, the “optical microscope observation of SARS-CoV-2 infection, V2” value [3] was “+”, the “optical microscope observation of SARS-CoV-2 infection, V3” value [3] was “- and +” and the “optical microscope observation of SARS-CoV-2 infection, V4” value [3] was “-”. The “optical microscope observation of SARS-CoV-2 infection, V5” value [3] was “-”, the “therapeutic effect (cytopathic effect at 5 days), in words” value [3] was “did not show any therapeutic effect” and the “comparative reduction of disulphide bonds, DTT alone vs DTT with Acetylcysteine (slope ratio)” value [4] was 42%. The “disulphide linkages reduced by Acetylcysteine” value [4] was 58%, the “viral inactivation test (RNA extraction), Δlog, V1” value [5] was 0.088 log and the “viral inactivation test (RNA extraction), Δlog, V2” value [5] was 0.224 log. For the same compound, the “differential assay between Acetylcysteine and DTT (slope ratio)” value (envelope protein) was 60%, the “disulphide bonds reduced by Acetylcysteine before the addition of DTT” value (envelope protein) was 40% and the “viral inhibition (CPE, optical and Neutral Red cell staining)” value [6] was “no viral inhibition”. For the same compound, the “TOXICITY” value (BGM cells) was “Nil”.
In the case of Bromelain, the “TOXICITY” value (Vero cells) is reported as “Nil” and the “TOXICITY” value (BGM cells) is reported as “Nil”.
